In patent US20250114367A1, “METHOD OF TREATING HAIR LOSS DISORDERS” (Sun Pharmaceutical Industries, Inc., priority 2023, published 2025):

Columns and labels:
subjects with AA = test: Open-label extension (OLE) studies: safety
Procedure: Two separate OLE trials were conducted in North America (CP543.5001) and the European Union (CP543.5002). […] Both OLE trials were similarly designed, except: Trial CP543.5001 (North America) participants have the opportunity to continue in the trial for a maximum of 276 weeks; and Trial CP543.5002 (European Union) participants have the opportunity to continue in the trial for a maximum of 108 weeks.
Subjects receiving any active dose of deuruxolitinib in the qualifying trials were initially assigned to receive either 8 mg BID or 12 mg BID in the OLE trial. Subjects receiving placebo in the qualifying trial were assigned to either deuruxolitinib 8 mg BID or 12 mg BID. Subjects were allowed to switch doses during the OLE after initial treatment assignment at the discretion of the Principal Investigator.

[1] = tested on: adult subjects with moderate to severe AA; test: Phase III trial: Brigham Eyebrow Tool for Alopecia (BETA); type: in vivo, human
Procedure: The BETA is a clinician-rated scale developed by dermatologists at Brigham and Women's Hospital that assesses the total eyebrow hair present (Tkachenko, E, et al., Brigham Eyebrow Tool for Alopecia: A Reliable Assessment of Eyebrow Alopecia Areata, Journal of Investigative Dermatology Symposium Proceedings (2020) 20, S41-S44). The BETA is calculated based on hair density (range 0 to 3) and surface area of each individual eyebrow. The BETA score is the sum of the right and left eyebrow scores (range 0 (absent) to 6). An expert panel of certified raters at Brigham and Women's Hospital performed central readings based on photographs of the eyebrows provided by the study sites and determined a score for each subject with eyebrow involvement following each visit where an assessment of eyebrow hair presence was assessed. The BETA was performed at baseline, Week 12, and Week 24. If a subject was unable to attend an in-person clinic visit due to COVID-19, the BETA may not have been performed due to the inability to take photographs of the eyebrows.
(§1) A Phase III trial was conducted to assess the efficacy and safety of CTP-543 in adult subjects with moderate to severe AA. Approximately 440 adult male and female subjects 18 to 65 years of age, inclusive, with moderate to severe AA participated in the study. Subjects with definitive diagnosis of AA, and at least 50% hair loss, as defined by a SALT score ≥50, who met all of the inclusion criteria and none of the exclusion criteria participated in the study.
The Screening Period lasted up to 28 days prior to initiation of study drug. […] Randomization was stratified by scalp hair loss into 1 of the following 2 categories: 1) partial scalp hair loss (SALT ≥50 and <95), 2) complete or near complete scalp hair loss (SALT ≥95). […]

[2] = tested on: adult subjects with moderate to severe AA; test: Phase III trial: Severity of Alopecia Tool (SALT) score; type: in vivo, human; settings: for percentages of participants (responders) stratified by duration of current AA episode: week 24
Procedure: The SALT score is calculated for a patient/subject by measuring the percentage of hair loss in each of the 4 areas of the scalp and adding the total to achieve a composite score (referred to herein as an absolute SALT score). Hair regrowth is reflected by a decrease in the SALT score.
as §1, with “Approximately” for “A Phase III trial was conducted to assess the efficacy and safety of CTP-543 in adult subjects with moderate to severe AA. Approximately”
The Screening Period lasted up to 28 days prior to initiation of study drug. […] Randomization was stratified by scalp hair loss into 1 of the following 2 categories: 1) partial scalp hair loss (SALT ≥50 and <95), 2) complete or near complete scalp hair loss (SALT ≥95).
Assessment of treatment response using SALT for efficacy occurred at 4, 8, 12, 16, 20 and 24 weeks.
The primary efficacy endpoint was the percentage of subjects achieving an absolute SALT score of ≤20.
Additional secondary efficacy endpoints included the following: • Relative change in SALT scores from baseline at Weeks 4, 8, 12, 16, 20, and 24. • Percentage of responders (defined as “much improved” or “very much improved”) using the Clinical Global Impression of Improvement (CGI-I) at Weeks 12, 16, 20, and 24. • Percentage of responders (defined as “much improved” or “very much improved”) using the Patient Global Impression of Improvement (PGI-I) at Weeks 12, 16, 20, and 24. • Change from baseline in the Clinical Global Impression of Severity (CGI-S) at Weeks 12, 16, 20, and 24. • Change from baseline in the Patient Global Impression of Severity (PGI-S) at Weeks 12, 16, 20, and 24. • Change from baseline on the Brigham Eyebrow Tool for Alopecia (BETA) score at Weeks 12 and 24. • Change from baseline on the Brigham Eyelash Tool for Alopecia (BELA) score at Weeks 12 and 24. • Percentage of subjects achieving at least a 75% relative reduction in SALT score from baseline at Weeks 12 and 24. • Percentage of subjects achieving at least a 90% relative reduction in SALT score from baseline at Weeks 12 and 24. • Percentage of responders (defined as “satisfied” or “very satisfied”) on the SPRO scale at Weeks 12, 16, and 20. • Change from baseline in the SPRO scale at Weeks 12, 16, 20, and 24. • Percentage of subjects achieving a ≥2-point change from baseline in the SPRO scale at Weeks 12, 16, 20, and 24. • Change from baseline on the individual items of the Hair Quality Patient Reported Outcome (QPRO) scale at Weeks 12, 16, 20, and 24. • Change from baseline in the depression scale of the Hospital Anxiety and Depression Scale (HADS) at Week 24. • Change from baseline in the anxiety scale of the HADS at Week 24. • Percentage of subjects achieving an absolute SALT score of ≤20 at Week 4. • Percentage of subjects achieving an absolute SALT score of ≤10 at Week 24
• Clinical presentation compatible with alopecia areata with a current episode lasting at least 6 months and not exceeding 10 years at the time of Screening. Total disease duration greater than 10 years is permitted. • At least 50% scalp hair loss, as defined by a Severity of Alopecia Tool (SALT) score ≥50, at Screening and Baseline. • Willing to comply with the study visits and requirements of the study protocol.
This will include but is not limited to: • a. Platelets ≤100×109/L or ≥600×109/L • b. Absolute neutrophil count ≤1.5×109/L • c.

## [2H]C1([2H])C([C@@H](CC#N)n2cc(-c3ncnc4[nH]ccc34)cn2)C([2H])([2H])C([2H])([2H])C1([2H])[2H] [CTP-543, (R)-3-(4-(7H-pyrrolo[2,3-d]pyrimidin-4-yl)-1H-pyrazol-1-yl)-3-(cyclopentyl-2,2,3,3,4,4,5,5-d8) propanenitrile]
Subjects with AA
  most common adverse events: COVID-19, acne, nasopharyngitis, headache, asymptomatic COVID-19, creatinine phosphokinase increase, and upper respiratory tract infection
[1]; Week 12, 8 mg BID
  BETA score, LS mean change from baseline: 0.8
[1]; Week 12, 12 mg BID
  BETA score, LS mean change from baseline: 0.8
[1]; Week 24, 8 mg BID
  BETA score, LS mean change from baseline: 1.1
[1]; Week 24, 12 mg BID
  BETA score, LS mean change from baseline: 1.4
[2]; Week 8, 12 mg BID
  percentage of subjects achieving an absolute SALT score of ≤20: 2.4%
[2]; Week 12, 8 mg BID
  percentage of subjects achieving an absolute SALT score of ≤20: 10.5%
[2]; Week 12, 12 mg BID
  percentage of subjects achieving an absolute SALT score of ≤20: 12.3%
[2]; Week 16, 8 mg BID
  percentage of subjects achieving an absolute SALT score of ≤20: 20.2%
[2]; Week 16, 12 mg BID
  percentage of subjects achieving an absolute SALT score of ≤20: 21.1%
[2]; Week 20, 12 mg BID
  percentage of subjects achieving an absolute SALT score of ≤20: 28.8%
[2]; Week 24, 8 mg BID
  percentage of subjects achieving an absolute SALT score of ≤20: 33%
[2]; Week 24, 12 mg BID
  percentage of subjects achieving an absolute SALT score of ≤20: 38.3%
  percentage of subjects with an absolute SALT score ≤10: 26.7%
[2]; Week 24, complete or near-complete scalp hair loss, 8 mg BID, 31/156
  subjects achieving SALT score ≤20: 20.9%
[2]; Week 24, complete or near-complete scalp hair loss, 8 mg BID, 37/184
  subjects achieving SALT score ≤20: 20.1%
[2]; Week 24, complete or near-complete scalp hair loss, 12 mg BID, 19/79
  subjects achieving SALT score ≤20: 26.0
[2]; Week 24, complete or near-complete scalp hair loss, 12 mg BID, 33/112
  subjects achieving SALT score ≤20: 29.5
[2]; Week 24, partial scalp hair loss at baseline, 8 mg BID, 46/93
  subjects achieving SALT score ≤20: 54.1%
[2]; Week 24, partial scalp hair loss at baseline, 8 mg BID, 57/134
  subjects achieving SALT score ≤20: 42.5%
[2]; Week 24, partial scalp hair loss at baseline, 12 mg BID, 27/48
  subjects achieving SALT score ≤20: 57.4%
[2]; Week 24, partial scalp hair loss at baseline, 12 mg BID, 50/88
  subjects achieving SALT score ≤20: 56.8%
[2]; two Phase 3 trials, THRIVE-AA1 and THRIVE-AA2
  hair regrowth vs placebo: significant improvements in hair regrowth vs placebo
[2]; week 8, 8 mg BID
  percentage of subjects achieving an absolute SALT score of ≤20: 2.9%
[2]; >4 years duration, 12 mg BID, 13/50
  percentages of participants (responders) stratified by duration of current AA episode: 28.9%
[2]; ≤4 years duration, 8 mg BID, 57/157
  percentages of participants (responders) stratified by duration of current AA episode: 38.3%
[2]; ≤4 years duration, 12 mg BID, 33/77
  percentages of participants (responders) stratified by duration of current AA episode: 44.0%
